Data taken from PubChem BioAssay AID330 (DTP/NCI, 2004).
Values joined by “and” are separate entries in the source; they are usually repeats but may differ in a detail not shown here. Equal entries are not always repeated. Inconclusive results and toxic doses are left out.

Tested on: P388 leukemia ip, CD2F1 mice, survival T/C
Test: NCI In Vivo Anticancer Drug Screen. Data for tumor model P388 Leukemia (intraperitoneal) in CD2F1 (CDF1) mice
Conditions: endpoint: median survival time, higher = longer survival
In short: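 Mice carrying the transplanted tumor received test compound or vehicle. Survival was recorded in each group, and the value is the treated-group measurement divided by that of the vehicle-treated control group.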

[1] = dose: 60.0 mg/kg/injection, schedule: Q01DX005 (ip), vehicle: saline with Tween-80
[2] = dose: 120.0 mg/kg/injection, schedule: Q01DX005 (ip), vehicle: saline with Tween-80
[3] = dose: 240.0 mg/kg/injection, schedule: Q01DX005 (ip), vehicle: saline with Tween-80
[4] = dose: 50.0 mg/kg/injection, schedule: Q01DX009 (ip), vehicle: Klucel (hydroxypropylcellulose) (HPC)
[5] = dose: 100.0 mg/kg/injection, schedule: Q01DX009 (ip), vehicle: Klucel (hydroxypropylcellulose) (HPC)
[6] = dose: 15.0 mg/kg/injection, schedule: Q01DX005 (ip), vehicle: saline with Tween-80
[7] = dose: 50.0 mg/kg/injection, schedule: Q01DX005 (ip), vehicle: saline with Tween-80
[8] = dose: 100.0 mg/kg/injection, schedule: Q01DX005 (ip), vehicle: saline with Tween-80
[9] = dose: 200.0 mg/kg/injection, schedule: Q01DX005 (ip), vehicle: saline with Tween-80
[10] = dose: 50.0 mg/kg/injection, schedule: Q01DX005 (ip), vehicle: Klucel (hydroxypropylcellulose) (HPC)
[11] = dose: 100.0 mg/kg/injection, schedule: Q01DX005 (ip), vehicle: Klucel (hydroxypropylcellulose) (HPC)
[12] = dose: 200.0 mg/kg/injection, schedule: Q01DX005 (ip), vehicle: Klucel (hydroxypropylcellulose) (HPC)
[13] = dose: 50.0 mg/kg/injection, schedule: Q01DX009 (ip), vehicle: saline
[14] = dose: 200.0 mg/kg/injection, schedule: Q01DX009 (ip), vehicle: Klucel (hydroxypropylcellulose) (HPC)

Nc1cc2c(cc1Br)-c1c(C(=O)O)cccc1C2O (stereo not given)
T/C (dose: 50.0 mg/kg/injection, schedule: Q01DX005 (ip), vehicle: sodium bicarbonate): 113 % of control | T/C [1]: 100 % of control and 101 % of control | T/C (dose: 100.0 mg/kg/injection, schedule: Q01DX005 (ip), vehicle: sodium bicarbonate): 123 % of control | T/C [2]: 104 % of control | T/C [3]: 123 % of control | T/C (dose: 480.0 mg/kg/injection, schedule: Q01DX005 (ip), vehicle: saline with Tween-80): 154 % of control

CCOC(=O)C[P+](c1ccccc1)(c1ccccc1)c1ccccc1
T/C (dose: 3.3 mg/kg/injection, schedule: Q01DX009 (ip), vehicle: saline sonified): 95 % of control | T/C (dose: 6.25 mg/kg/injection, schedule: Q01DX009 (ip), vehicle: saline sonified): 90 % of control | T/C (dose: 12.5 mg/kg/injection, schedule: Q01DX009 (ip), vehicle: saline sonified): 100 % of control | T/C (dose: 25.0 mg/kg/injection, schedule: Q01DX009 (ip), vehicle: saline sonified): 100 % of control

Cc1c(Cc2c(C)n(C)n(-c3ccccc3)c2=O)c(=O)n(-c2ccccc2)n1C
T/C (dose: 25.0 mg/kg/injection, schedule: Q01DX009 (ip), vehicle: Klucel (hydroxypropylcellulose) (HPC)): 100 % of control and 103 % of control | T/C [4]: 106 % of control and 89 % of control | T/C [5]: 99 % of control and 88 % of control

CCCCOc1cc(C(=O)NCCN(C)C)c2ccccc2n1
T/C (dose: 7.5 mg/kg/injection, schedule: Q01DX005 (ip), vehicle: saline with Tween-80): 104 % of control | T/C [6]: 106 % of control | T/C (dose: 30.0 mg/kg/injection, schedule: Q01DX005 (ip), vehicle: saline with Tween-80): 106 % of control

CN=C1NS(=O)(=O)c2ccccc21
T/C [7]: 93 % of control | T/C [8]: 108 % of control | T/C [9]: 97 % of control

Cc1ccc(NP2(Nc3ccc(C)cc3)=NP(Nc3ccc(C)cc3)(Nc3ccc(C)cc3)=NP(Nc3ccc(C)cc3)(Nc3ccc(C)cc3)=NP(Nc3ccc(C)cc3)(Nc3ccc(C)cc3)=N2)cc1
T/C [10]: 101 % of control | T/C [11]: 99 % of control | T/C [12]: 101 % of control

CCN(CC)CC.CCOc1ccc(NC(=O)N=C=[N-])cc1.[CH-]1CCCCC1.[CH-]1CCCCC1.[CH-]1CCCCC1.[Cl-].[Sn+4]
T/C (dose: 6.0 mg/kg/injection, schedule: Q01DX005 (ip), vehicle: Klucel (hydroxypropylcellulose) (HPC)): 101 % of control | T/C (dose: 12.0 mg/kg/injection, schedule: Q01DX005 (ip), vehicle: Klucel (hydroxypropylcellulose) (HPC)): 89 % of control

CC(C)C1=CC2=CCC3C(C)(C(=O)O)CCCC3(C)C2CC1.[Ni] (stereo not given)
T/C (dose: 12.5 mg/kg/injection, schedule: Q01DX009 (ip), vehicle: saline): 95 % of control | T/C (dose: 25.0 mg/kg/injection, schedule: Q01DX009 (ip), vehicle: saline): 88 % of control | T/C [13]: 88 % of control

O=C(/C=C/c1c[nH]c2ccccc12)c1ccccc1O
T/C [1]: 98 % of control | T/C [2]: 90 % of control | T/C [3]: 98 % of control

CCOC(=O)CCC1(C)Sc2ccccc2N1C (stereo not given)
T/C [1]: 107 % of control | T/C [2]: 110 % of control | T/C [3]: 107 % of control

Cc1cnc(Sc2ncccn2)c([N+](=O)[O-])c1
T/C [13]: 101 % of control | T/C (dose: 100.0 mg/kg/injection, schedule: Q01DX009 (ip), vehicle: saline): 104 % of control | T/C (dose: 200.0 mg/kg/injection, schedule: Q01DX009 (ip), vehicle: saline): 104 % of control

O=C1NC(c2ccccc2)(c2ccccc2)C(=O)N1CNc1ccccn1
T/C [1]: 91 % of control | T/C [2]: 89 % of control | T/C [3]: 88 % of control

O=C1CC2OCC=C3CN4CCC56c7ccccc7N1C5C2C3CC46 (stereo not given) (tested in a mixture with another compound)
T/C (dose: 0.38 mg/kg/injection, schedule: Q01DX009 (ip), vehicle: saline + alcohol): 100 % of control | T/C (dose: 0.75 mg/kg/injection, schedule: Q01DX009 (ip), vehicle: saline + alcohol): 109 % of control | T/C (dose: 1.5 mg/kg/injection, schedule: Q01DX009 (ip), vehicle: saline + alcohol): 95 % of control

S=C(NCNC(=S)c1ccncc1)c1ccncc1
T/C [7]: 100 % of control and 111 % of control | T/C [8]: 108 % of control and 120 % of control | T/C [9]: 104 % of control

CCOC(=O)Nc1cc(=O)c([N+](=O)[O-])c(N)[nH]1
T/C (dose: 60.0 mg/kg/injection, schedule: Q01DX005 (ip), vehicle: saline + Tween-80 + alcohol): 99 % of control | T/C (dose: 120.0 mg/kg/injection, schedule: Q01DX005 (ip), vehicle: saline + Tween-80 + alcohol): 101 % of control | T/C (dose: 240.0 mg/kg/injection, schedule: Q01DX005 (ip), vehicle: saline + Tween-80 + alcohol): 100 % of control

CCCCc1noc(N)c1SCC
T/C [7]: 105 % of control | T/C [8]: 103 % of control | T/C [9]: 107 % of control

CCOc1ccc(/C=C2\CCc3ccccc3C2=O)cc1
T/C [4]: 98 % of control | T/C [5]: 102 % of control | T/C [14]: 99 % of control

CC(/C=C/c1ccccc1)=N\Nc1c(F)c(F)c(F)c(F)c1F
T/C [4]: 103 % of control | T/C [5]: 102 % of control | T/C [14]: 100 % of control

CN=C1N[N+]2=CCCCC2S1 (stereo not given)
T/C (dose: 12.5 mg/kg/injection, schedule: Q04DX003 (ip), vehicle: saline): 102 % of control | T/C (dose: 15.0 mg/kg/injection, schedule: Q01DX009 (ip), vehicle: saline): 100 % of control and 101 % of control | T/C (dose: 25.0 mg/kg/injection, schedule: Q04DX003 (ip), vehicle: saline): 104 % of control | T/C (dose: 30.0 mg/kg/injection, schedule: Q01DX009 (ip), vehicle: saline): 92 % of control and 97 % of control | T/C (dose: 50.0 mg/kg/injection, schedule: Q04DX003 (ip), vehicle: saline): 97 % of control | T/C (dose: 60.0 mg/kg/injection, schedule: Q01DX009 (ip), vehicle: saline): 114 % of control and 96 % of control | T/C (dose: 120.0 mg/kg/injection, schedule: Q01DX009 (ip), vehicle: saline): 120 % of control and 96 % of control

C=C1C(=O)O[C@H]2CC(C)C3C[C@@H](O)OC(O)[C@]3(C)C[C@@H]12 (stereo not given in full)
T/C (dose: 2.38 mg/kg/injection, schedule: Q01DX005 (ip), vehicle: Klucel (hydroxypropylcellulose) (HPC)): 101 % of control | T/C (dose: 4.75 mg/kg/injection, schedule: Q01DX005 (ip), vehicle: Klucel (hydroxypropylcellulose) (HPC)): 111 % of control | T/C (dose: 9.5 mg/kg/injection, schedule: Q01DX005 (ip), vehicle: Klucel (hydroxypropylcellulose) (HPC)): 102 % of control

CCOC(=O)CNC(=O)C(CSSCC(NC(=O)OCc1ccccc1)C(=O)OC)NC(=O)C(NC(=O)OCc1ccccc1)C(C)C (stereo not given)
T/C [10]: 100 % of control | T/C [11]: 98 % of control | T/C [12]: 95 % of control

C/C1=C\CC(O)/C(C)=C/CC2=CCC(C(C)C)C2(C)CC1 (stereo not given)
T/C (dose: 4.0 mg/kg/injection, schedule: Q01DX009 (ip), vehicle: Klucel (hydroxypropylcellulose) (HPC)): 101 % of control | T/C (dose: 8.0 mg/kg/injection, schedule: Q01DX009 (ip), vehicle: Klucel (hydroxypropylcellulose) (HPC)): 101 % of control | T/C (dose: 16.0 mg/kg/injection, schedule: Q01DX009 (ip), vehicle: Klucel (hydroxypropylcellulose) (HPC)): 102 % of control | T/C (dose: 32.0 mg/kg/injection, schedule: Q01DX009 (ip), vehicle: Klucel (hydroxypropylcellulose) (HPC)): 102 % of control

CC(=O)NC(Cc1cc(I)c(OC(C)=O)c(I)c1)C(C)=O (stereo not given)
T/C [4]: 101 % of control | T/C [5]: 100 % of control | T/C [14]: 98 % of control

COc1ccc(-c2cc(=O)c3c(O)cc(O)c(-c4cc(-c5cc(=O)c6c(O)cc(OC)cc6o5)ccc4OC)c3o2)cc1
T/C [10]: 105 % of control | T/C [11]: 99 % of control | T/C [12]: 88 % of control

CCCNC(=S)Nc1ccc(F)cc1F
T/C (dose: 3.12 mg/kg/injection, schedule: Q01DX009 (ip), vehicle: other): 108 % of control | T/C (dose: 6.25 mg/kg/injection, schedule: Q01DX009 (ip), vehicle: other): 107 % of control and 110 % of control and 89 % of control | T/C (dose: 12.5 mg/kg/injection, schedule: Q01DX009 (ip), vehicle: other): 99 % of control and 100 % of control and 101 % of control | T/C (dose: 25.0 mg/kg/injection, schedule: Q01DX009 (ip), vehicle: other): 108 % of control and 121 % of control and 96 % of control

COc1ccccc1N=NC(C#N)C(N)=O (stereo not given)
T/C (dose: 25.0 mg/kg/injection, schedule: Q01DX009 (ip), vehicle: saline with Tween-80): 102 % of control | T/C (dose: 50.0 mg/kg/injection, schedule: Q01DX009 (ip), vehicle: saline with Tween-80): 101 % of control

CCCCCCC(O)Cc1cc(-c2ccccc2)nc(=O)[nH]1 (stereo not given)
T/C [6]: 97 % of control | T/C [1]: 87 % of control | T/C [3]: 95 % of control

CC(C)(C)OC(=O)N1CCCC1C(=O)O (stereo not given)
T/C [10]: 100 % of control | T/C [11]: 106 % of control | T/C [12]: 99 % of control

CN1CCC2=C(C1)C(c1ccccc1)c1ccccc12 (stereo not given)
T/C (dose: 33.0 mg/kg/injection, schedule: Q01DX009 (ip), vehicle: saline): 107 % of control | T/C [13]: 104 % of control | T/C (dose: 75.0 mg/kg/injection, schedule: Q01DX009 (ip), vehicle: saline): 107 % of control
